From article PMC11672400, “Synthesis, Spectroscopic Characterization, Structural Analysis, and Evaluation of Anti-Tumor, Antimicrobial, and Antibiofilm Activities of Halogenoaminopyrazoles Derivatives” (Antibiotics, 2024)
≈ marks a conversion by molar mass, not a printed value. Where two headings read alike, the source gives them in different places. Blank lines part the entries; values can stand above or below the compound they belong to.

What was measured:
[1] = system: Staphylococcus aureus ATCC25923; assay: Qualitative evaluation of antimicrobial activity (inhibition zone, spot on agar); format: cell-based; set-up: key: (+) inhibited bacterial growth; (-) did not inhibit bacterial growth; details: 0.06 g/2 mL DMSO, 5 µL spot
Procedure: (§1) For testing the antimicrobial/antibiofilm activity, the concentration of the studied compounds was identical to 0.06 g/2 mL DMSO. 0.5 Standard McFarland suspension was used, which was inoculated onto Mueller Hinton agar plates, (Remel, Lenexa, KS, USA), 5 µL of each compound was spotted and incubated overnight at 37 °C. Antimicrobial activity was observed as zones of inhibition formed around the spot.

[2] = system: Pseudomonas aeruginosa ATCC27853; assay: as above; format: cell-based; set-up: key: (+) inhibited bacterial growth; (-) did not inhibit bacterial growth; details: 0.06 g/2 mL DMSO, 5 µL spot
Procedure: as §1

[3] = system: Escherichia coli ATCC25922; assay: as above; format: cell-based; set-up: key: (+) inhibited bacterial growth; (-) did not inhibit bacterial growth; details: 0.06 g/2 mL DMSO, 5 µL spot
Procedure: as §1

[4] = system: Enterococcus faecalis ATCC29212; assay: as above; format: cell-based; set-up: key: (+) inhibited bacterial growth; (-) did not inhibit bacterial growth; details: 0.06 g/2 mL DMSO, 5 µL spot
Procedure: as §1

[5] = system: HEp-2 epithelial tumor cells; assay: MTT cell viability / anti-tumor activity; details: Homo sapiens, read-out: Cell viability on Hep2 cells (%)
[6] = MTT cell viability / cytotoxicity on normal fibroblasts; format: cell-based, mouse; details: mouse, NCTC clone 929 (L929) mouse fibroblast cells
Excerpt: Merck chemicals were utilized.
Untreated cells were used as control, considered 100% viable cells.

[7] = system: Staphylococcus aureus ATCC25923; assay: MIC by serial microdilution in liquid medium; format: cell-based; details: 24 h, 37 °C; for MIC: Staphylococcus aureus, ATCC25923, read-out: Minimum inhibitory concentration, Staphylococcus aureus ATCC25923
Procedure: (§2) The minimum inhibitory concentrations (MIC) were determined by the serial microdilution method in a liquid medium (Tryptone Soy Broth), on 96-well plates. Serial binary dilutions of the compound stock solution (10 mg/mL in DMSO) were carried out in 90 µL of culture medium and 10 µL of 10^6 CFU/mL (Colony Forming Units) microbial suspension. Each test included a positive control (wells with culture medium and microbial suspension) and a negative control for medium sterility. After incubation at 37 °C for 24 h the plates were visually examined, and optical density was measured at 620 nm. […] The MIC value (µg/mL) for the chemical compound was determined by the concentration in the final well without bacterial growth. All experiments were performed in triplicate.

[8] = system: Pseudomonas aeruginosa ATCC27853; assay: MIC by serial microdilution in liquid medium; format: cell-based; details: Pseudomonas aeruginosa, ATCC27853; 24 h, 37 °C; read-out: Minimum inhibitory concentration, Pseudomonas aeruginosa ATCC27853
Procedure: as §2

[9] = system: Escherichia coli ATCC25922; assay: MIC by serial microdilution in liquid medium; format: cell-based; details: 24 h, 37 °C; for MIC: Escherichia coli, ATCC25922, read-out: Minimum inhibitory concentration, Escherichia coli ATCC25922
Procedure: as §2

[10] = system: Enterococcus faecalis ATCC29212; assay: MIC by serial microdilution in liquid medium; format: cell-based; details: Enterococcus faecalis, ATCC29212; 24 h, 37 °C; read-out: Minimum inhibitory concentration, Enterococcus faecalis ATCC29212
Procedure: as §2

[11] = system: Staphylococcus aureus ATCC25923; assay: Antibiofilm assay (crystal violet), MBIC; format: cell-based; details: 24 h, 37 °C; for minimal effective concentration: Staphylococcus aureus, ATCC25923, read-out: Minimum biofilm inhibition concentration (MBIC), Staphylococcus aureus ATCC25923
Procedure: (§3) Microorganisms were grown in 96-well plates filled with nutrient broth along with test substances, followed by incubation at 37 °C for 24 h. Plates were cleaned and rinsed thrice using SPW solution (sterile physiological water). After that, the attached cells were treated with 110 μL of methanol for 5 min, and then the methanol was removed by turning it upside down. […] Once stained, the solution was removed, and the plates were washed with running tap water. […] The antimicrobial/antibiofilm activity of the compounds was evaluated against two antibiotics, commercial formulations of metronidazole and nitrofurantoin.

[12] = system: Pseudomonas aeruginosa ATCC27853; assay: Antibiofilm assay (crystal violet), MBIC; format: cell-based; details: 37 °C; for minimal effective concentration: Pseudomonas aeruginosa, ATCC27853, 24 h, read-out: Minimum biofilm inhibition concentration (MBIC), Pseudomonas aeruginosa ATCC27853
Procedure: as §3

[13] = system: Escherichia coli ATCC25922; assay: Antibiofilm assay (crystal violet), MBIC; format: cell-based; details: 37 °C; for minimal effective concentration: Escherichia coli, ATCC25922, 24 h, read-out: Minimum biofilm inhibition concentration (MBIC), Escherichia coli ATCC25922
Procedure: as §3

[14] = system: Enterococcus faecalis ATCC29212; assay: Antibiofilm assay (crystal violet), MBIC; format: cell-based; details: Enterococcus faecalis, ATCC29212, 24 h, 37 °C, read-out: Minimum biofilm inhibition concentration (MBIC), Enterococcus faecalis ATCC29212
Procedure: as §3

- melting point: 134 to 135 °C
- MIC [7]: 460 µg/mL (≈ 1640 µM)
- MIC [8]: 460 ± 0.03 µg/mL (≈ 1640 µM)
- MIC [9]: 460 µg/mL (≈ 1640 µM)
- MIC [10]: 930 ± 0.04 µg/mL (≈ 3310 µM)
Structure (SMILES): Cc1nn(CNc2ccccc2Cl)c(C)c1[N+](=O)[O-] [4f, N-[(3,5-dimetyl-4-nitro-1H-pyrazol-1-yl)-methyl]-2-chloroaniline]
- Qualitative antimicrobial activity, Staphylococcus aureus ATCC25923 [1]: +
- Qualitative antimicrobial activity, Pseudomonas aeruginosa ATCC27853 [2]: +
- Qualitative antimicrobial activity, Escherichia coli ATCC25922 [3]: +
- Qualitative antimicrobial activity, Enterococcus faecalis ATCC29212 [4]: -
- viability at 3.1 µg/mL ([5]; HEp-2, 24 h): 98.3 ± 1.16%
- viability at 6.25 µg/mL ([5]; HEp-2, 24 h): 98.61 ± 0.72%
- viability at 12.5 µg/mL ([5]; HEp-2, 24 h): 95.5 ± 2.45%
- viability at 25 µg/mL ([5]; HEp-2, 24 h): 94.3 ± 2.78%
- viability at 50 µg/mL ([5]; HEp-2, 24 h): 93.9 ± 1.03%
- viability at 3.1 µg/mL ([5]; HEp-2, 48 h): 98.3 ± 3.38%
- viability at 6.25 µg/mL ([5]; HEp-2, 48 h): 97.74 ± 0.62%
- viability at 12.5 µg/mL ([5]; HEp-2, 48 h): 93.63 ± 0.75%
- viability at 25 µg/mL ([5]; HEp-2, 48 h): 86 ± 0.93%
- viability at 50 µg/mL ([5]; HEp-2, 48 h): 72.8 ± 2.33%
- viability at 24 h, 3.1 µg/mL ([6]; 3.1 µg/mL, 24h): 107 ± 1.61%
- viability at 48 h, 3.1 µg/mL ([6]; 3.1 µg/mL, 48h): 99.6 ± 1.2%
- viability at 24 h, 6.25 µg/mL ([6]; 6.25 µg/mL, 24h): 108 ± 1.6%
- viability at 48 h, 6.25 µg/mL ([6]; 6.25 µg/mL, 48h): 106 ± 1.7%
- viability at 24 h, 12.5 µg/mL ([6]; 12.5 µg/mL, 24h): 103 ± 1.05%
- viability at 48 h, 12.5 µg/mL ([6]; 12.5 µg/mL, 48h): 103.1 ± 0.68%
- viability at 24 h, 25 µg/mL ([6]; 25 µg/mL, 24h): 93.7 ± 2.77%
- viability at 48 h, 25 µg/mL ([6]; 25 µg/mL, 48h): 97.8 ± 2.35%
- viability at 24 h, 50 µg/mL ([6]; 50 µg/mL, 24h): 87.7 ± 1.77%
- viability at 48 h, 50 µg/mL ([6]; 50 µg/mL, 48h): 80.5 ± 1.16%
- Minimum inhibitory concentration, Staphylococcus aureus ATCC25923 [7]: 460 ± 0.01 µg/mL (≈ 1640 µM)
- Minimum inhibitory concentration, Escherichia coli ATCC25922 [9]: 460 ± 0.02 µg/mL (≈ 1640 µM)
- Minimum biofilm inhibition concentration (MBIC), Staphylococcus aureus ATCC25923 [11]: 460 ± 0.02 µg/mL
- minimal effective concentration [11]: 460 µg/mL
- Minimum biofilm inhibition concentration (MBIC), Pseudomonas aeruginosa ATCC27853 ([12]; 24 h): 460 ± 0.01 µg/mL
- minimal effective concentration [12]: 460 µg/mL
- Minimum biofilm inhibition concentration (MBIC), Escherichia coli ATCC25922 ([13]; 24 h): 460 ± 0.02 µg/mL
- minimal effective concentration [13]: 460 µg/mL

- MIC [7]: 1950 ± 0.05 µg/mL (≈ 11400 µM)
- MIC [8]: 1562 ± 0.03 µg/mL (≈ 9130 µM)
- MIC [9]: 1950 ± 0.05 µg/mL (≈ 11400 µM)
- MIC [10]: 970 ± 0.17 µg/mL (≈ 5670 µM)
Structure (SMILES): Cc1ncc([N+](=O)[O-])n1CCO [Metronidazole, metronidazole, reference compound]
- Qualitative antimicrobial activity, Staphylococcus aureus ATCC25923 [1]: +
- Qualitative antimicrobial activity, Pseudomonas aeruginosa ATCC27853 [2]: +
- Qualitative antimicrobial activity, Escherichia coli ATCC25922 [3]: +
- Qualitative antimicrobial activity, Enterococcus faecalis ATCC29212 [4]: +
- minimal effective concentration [11]: 1950 ± 0.09 µg/mL
- minimal effective concentration [12]: 1562 ± 0.11 µg/mL
- minimal effective concentration [13]: 1950 ± 0.04 µg/mL
- minimal effective concentration [14]: 970 ± 0.21 µg/mL

- MIC [7]: 600 ± 0.04 µg/mL (≈ 2520 µM)
- MIC [8]: 3571 ± 0.08 µg/mL (≈ 15000 µM)
- MIC [9]: 600 ± 0.02 µg/mL (≈ 2520 µM)
- MIC [10]: 600 ± 0.12 µg/mL (≈ 2520 µM)
Structure (SMILES): O=C1CN(/N=C/c2ccc([N+](=O)[O-])o2)C(=O)N1 [Nitrofurantoin, nitrofurantoin, reference compound]
- Qualitative antimicrobial activity, Staphylococcus aureus ATCC25923 [1]: +
- Qualitative antimicrobial activity, Pseudomonas aeruginosa ATCC27853 [2]: +
- Qualitative antimicrobial activity, Escherichia coli ATCC25922 [3]: +
- Qualitative antimicrobial activity, Enterococcus faecalis ATCC29212 [4]: +
- minimal effective concentration [11]: 2230 ± 0.13 µg/mL
- minimal effective concentration [12]: 550 ± 0.23 µg/mL
- minimal effective concentration [13]: 600 ± 0.03 µg/mL
- minimal effective concentration [14]: 600 ± 0.17 µg/mL
